Data set [1] has as its system Mus musculus. As to the kind of experiment: Antioxidant activity against AAPH-induced lipid peroxidation in ICR mouse assessed as increase in ORAC score in plasma at 300 mg/kg, po after 1 hr relative to control. The data set is classed as functional.
Data set [2] concerns Mus musculus. As to the kind of experiment: Antiinflammatory activity against carrageenan-induced paw edema in ICR mouse at 300 mg/kg, po administered 1 hr before carrageenan challenge measured after 3 hrs by plethysmometer relative to control. It is filed as functional. A general note: In the carrageenan paw model, swelling and tenderness develop within hours.
Data set [3] in a line: Drug level in human plasma after 0.5 hrs. The data set is classed as ADME, cell-free.
Data set [4] concerns Mus musculus. As to the kind of experiment: Antiinflammatory activity against carrageenan-induced paw edema in ICR mouse at 300 mg/kg, po administered 1 hr before carrageenan challenge measured after 24 hrs by plethysmometer relative to control. The data set is classed as functional.
Data set [5] concerns Plasma. As to the kind of experiment: Drug level in ICR mouse plasma assessed as free compound level after 1 hr in presence of beta-glucuronidase by HPLC-ESI-MS/MS analysis relative to total compound level. The data set is classed as ADME, cell-free.
Data set [6] concerns Plasma. As to the kind of experiment: Drug level in ICR mouse plasma assessed as free compound level after 6 hrs in presence of beta-glucuronidase by HPLC-ESI-MS/MS analysis. The data set is classed as ADME, cell-free.
In data set [7] the test system is Mus musculus. The data set can be described thus: Antiinflammatory activity against carrageenan-induced paw edema in ICR mouse at 300 mg/kg, po administered 6 hr before carrageenan challenge measured after 3 to 24 hrs by plethysmometer. Set-up: dose 300 mg/kg. The data set is classed as functional, organism-based.
The test system of data set [8] is Plasma. The data set can be described thus: Drug level in ICR mouse plasma assessed as free compound level after 1 hr in presence of beta-glucuronidase by HPLC-ESI-MS/MS analysis. It is filed as ADME, cell-free.
In data set [9] the test system is Plasma. The data set can be described thus: Drug level in ICR mouse plasma assessed as free compound level after 6 hrs in presence of beta-glucuronidase by HPLC-ESI-MS/MS analysis relative to total compound level. The data set is classed as ADME, cell-free.
A short description of data set [10]: Drug level in human plasma after 6 hrs. The data set is classed as ADME, cell-free.
Data set [11] has as its system Mus musculus. As to the kind of experiment: Antiinflammatory activity against carrageenan-induced paw edema in ICR mouse at 300 mg/kg, po administered 1 hr before carrageenan challenge measured after 6 hrs by plethysmometer relative to control. The data set is classed as functional.
Data set [12] deals with Mus musculus. As to the kind of experiment: Antioxidant activity against AAPH-induced lipid peroxidation in ICR mouse assessed as decrease in ORAC score in plasma at 300 mg/kg, po after 6 hr relative to control. The data set is classed as functional. Set-up: scale not given: the % may be the effect or the level left.
Data set [13] can be described thus: Drug level in rat plasma at 5 mg after 6 hrs. The data set is classed as ADME, cell-free.

Active and inactive are the calls of the source. The calls are words filed in the database; no cut-off is given here.

As for `O=c1oc2cc(O)ccc2c2ccc(O)cc12`, the Activity in the data set on Mus musculus [1] came out at 142%; with Mus musculus [2], 35%; with Mus musculus [4], 34%; in the data set on Mus musculus [11], 26%; in the data set with Mus musculus [12], 118%. The compound further came in with a concentration at 0.5 h in data set [3] of 40 nM. Further, the “Cp(f)” value in the data set on Plasma [5] is 77.2%; in the data set with Plasma [6] it was 830 nM; in the data set with Plasma [8], 2850 nM; in the data set on Plasma [9], 65.7%. Moreover, in the data set on Mus musculus [7], the result was inactive. This compound also gave a concentration at 6 h in [10] of 110 nM.

Consider `O=C1O[C@H]2[C@@H]3OC(=O)c4cc(O)c(O)c(O)c4-c4c(cc(O)c(O)c4O)C(=O)OC[C@H]2O[C@@H](OC(=O)c2cc(O)c(O)c(O)c2)[C@@H]3OC(=O)c2cc(O)c(O)c3c2[C@@H]2C1=CC(=O)[C@](O)(O3)C2(O)O` [GERANIIN], for which, in data set [13], the concentration at 6 h worked out at 450 nM.

For the origin of these results see ChEMBL document CHEMBL1833831, “In vivo anti-inflammatory and antioxidant properties of ellagitannin metabolite urolithin A” (Bioorg Med Chem Lett, 2011).
